Measurements from patent publication US20230072421A1, “TARGETED RADIOPHARMACEUTICALS FOR THE DIAGNOSIS AND TREATMENT OF PROSTATE CANCER” (Bayer AS, priority 2019, published 2023).

Tests used:
VCaP cells = experiment: Cell proliferation assay (CellTiter-Glo, 5-day exposure), VCaP; type: cell-based; settings: 4000 cells/well, Th-227 labelled at 375 kBq/nmol, mean of 1 to 6 experiments
Experimental: (§1) Inhibition of cell proliferation of Thorium-227 labeled PMSA SMOL ligands was tested different prostate cancer cell lines, namely 22Rv1, VCaP, C4-2 (all from ATCC, Manassas, Va., USA) and LNCaP (DMSZ, Braunschweig). Cells were seeded using the following conditions in 384 well plates (Corning) in 30 μl of growth media at 4000 cells/well for VCaP cells and 1000 cells/well for 22Rv1, C4-2 and LNCaP cells.
(§2) Cells were cultivated an incubator at 37° C. and 5% C02 over night. […] In sister plates cell viability at treatment start (d=0) was determined using CellTiter-Glo® assay (CTG, Promega, Madison, Wis., USA), by adding 30 μl per well CTG solution, incubation for 10 min and reading of Luminescence in a PheraStarFSX instrument (BMG Labtech). After a 5-day exposure in the presenced of test compounds, cell viability of treated or untreated control cells was determined again using CellTiter-Glo® assay (Promega, Madison, Wis., USA). […] The DRC software is a Biobook Spreadsheet that was developed by Bayer AG and Bayer Business Services on the IDBS E-Workbook Suite platform (IDBS: ID Business Solutions Ltd., Guildford, UK).

C4-2 cells = experiment: Cell proliferation assay (CellTiter-Glo, 5-day exposure), C4-2; type: cell-based; settings: C4-2, 1000 cells/well, Th-227 labelled at 375 kBq/nmol, mean of 1 to 6 experiments
Experimental: as §1, §2

22Rv1 cells = experiment: Cell proliferation assay (CellTiter-Glo, 5-day exposure), 22Rv1; type: cell-based; settings: 22Rv1, 1000 cells/well, Th-227 labelled at 375 kBq/nmol, mean of 1 to 6 experiments
Experimental: as §1, §2

[1] = tested on: LNCaP human prostate cancer cells; experiment: LNCaP xenograft efficacy study (T/C tumor area); type: in vivo, SCID mice
Experimental: (§3) SCID mice were randomly assigned to experimental groups, ten animals per group (efficacy) or n=3-5 per time point of biodistribution study. At the initiation of the study, a testosterone pellet was subcutaneously transplanted, the animals were shaved, tattooed and each cage was labeled with the cage number, study number and number of animals per cage.
(§4) LNCaP human prostate cancer cells were cultured as described according to the supplier's protocols. Cells were harvested for transplantation in a subconfluent (70%) state. Animals were injected with 5×10^6 LNCaP cells suspended in 100% Matrigel subcutaneously into the flank of the mice.
Efficacy study: When tumors reached a predetermined size in mice of 35-50 mm^2 animals were randomized into treatment and control groups (n=10 animals/group) and treatment with the defined radioactive dose was started. The i.v. application volume was 100 μl/mice.
Tumor response was assessed by determination of the tumor area (product of the longest diameter and its perpendicular) using a caliper. The animal body weight was monitored as a measure for treatment-related toxicity. Measurement of tumor area and body weight was performed two to three times weekly.
Animals were sacrificed when showing signs of toxicity (>20% body weight loss) or when tumors reached a size of approximately 200 mm^2.
Tumor growth inhibition is presented as T/C ratio (Treatment/Control) calculated with tumor areas when the vehicle control group had to be closed.

[2] = Biodistribution study in LNCaP tumor-bearing mice (Th227 counted in organs); type: in vivo, SCID mice; settings: 500 kBq/kg; for Th-227 in Blood / Th-227 in Femur bone / Th-227 in Kidneys / Th-227 in Liver / Th-227 in Spleen / Th-227 in Tumor / Th-227 in salivary glands: study b3004
Experimental: as §3, §4
Biodistribution study: When tumors reached a predetermined size in mice of ˜50 mm^2 animals were randomized into groups (n=3 animals/time point) and the radioactive compound was once applied intravenously. The i.v. application volume was 100 μl/mice.
At the predetermined time point, n=3 animals were sacrificed, the organs removed, weight and measured in a Germanium detector to count the Th227 in the sample.

[3] = comparison of % injected dose per gram tissue

For `Cc1cc(C(=O)NCCN(CCCN(CCNC(=O)c2cc(C)n(CC(=O)O)c(=O)c2[O-])CCNC(=O)c2cc(C)n(CC(=O)NCC3CCC(C(=O)NC(Cc4ccc5ccccc5c4)C(=O)NCCCCC(NC(=O)NC(CCC(=O)O)C(=O)O)C(=O)O)CC3)c(=O)c2[O-])CCNC(=O)c2cc(C)n(CC(=O)NCC3CCC(C(=O)NC(Cc4ccc5ccccc5c4)C(=O)NCCCCC(NC(=O)NC(CCC(=O)O)C(=O)O)C(=O)O)CC3)c(=O)c2[O-])c([O-])c(=O)n1CC(=O)O.[227Th+4]` (stereo not shown) [1-C dimer-227Th], the “Proliferation assay on cancer cell lines by TTCs Default Pivot #3 IC50 [kBq/mL] VCap 4000cells 375kBq/nmol (mean)” value (VCaP cells) was 1.55 kBq/mL, the “Proliferation assay on cancer cell lines by TTCs Default Pivot #3 IC50 [kBq/mL] C4-2 1000cells 375kBq/nmol (mean)” value (C4-2 cells) was 1.12 kBq/mL and the “Proliferation assay on cancer cell lines by TTCs Default Pivot #3 IC50 [kBq/mL] 22Rv1 1000cells 375kBq/nmol (mean)” value (22Rv1 cells) was 1.04 kBq/mL. For the same compound, the T/Carea ([1]; Example II, day 33 after start of therapy, 375 kBq/kg weekly for 5 weeks) was 0.60, the T/Carea ([1]; Example II, day 33 after start of therapy, 750 kBq/kg weekly for 5 weeks) was 0.34 and the T/Carea ([1]; Example IV, day 36 after start of therapy, once 1 MBq/kg) was 0.48. For the same compound, the “Accumulation in the tumor (in words)” value [2, 3] was “much higher accumulation in the tumor”, the “Background in blood, liver and spleen (in words)” value [2, 3] was “lower background compared to 1-F-227Th” and the “Th-227 in Blood” value ([2]; 1 h) was 0.90 % ID Th-227/g organ. The “Th-227 in Femur bone” value ([2]; 1 h) was 1.39 % ID Th-227/g organ, the “Th-227 in Kidneys” value ([2]; 1 h) was 120.74 % ID Th-227/g organ and the “Th-227 in Liver” value ([2]; 1 h) was 1.49 % ID Th-227/g organ. For the same compound, the “Th-227 in Spleen” value ([2]; 1 h) was 2.33 % ID Th-227/g organ, the “Th-227 in Tumor” value ([2]; 1 h) was 19.99 % ID Th-227/g organ and the “Th-227 in salivary glands” value ([2]; 1 h) was 5.02 % ID Th-227/g organ. For the same compound, the “Th-227 in Blood” value ([2]; 24 h) was 0.07 % ID Th-227/g organ, the “Th-227 in Femur bone” value ([2]; 24 h) was 1.65 % ID Th-227/g organ and the “Th-227 in Kidneys” value ([2]; 24 h) was 102.45 % ID Th-227/g organ. The “Th-227 in Liver” value ([2]; 24 h) was 1.34 % ID Th-227/g organ, the “Th-227 in Spleen” value ([2]; 24 h) was 1.50 % ID Th-227/g organ and the “Th-227 in Tumor” value ([2]; 24 h) was 14.49 % ID Th-227/g organ. For the same compound, the “Th-227 in salivary glands” value ([2]; 24 h) was 1.39 % ID Th-227/g organ, the “Th-227 in Blood” value ([2]; 72 h) was 0.01 % ID Th-227/g organ and the “Th-227 in Femur bone” value ([2]; 72 h) was 1.25 % ID Th-227/g organ. The “Th-227 in Kidneys” value ([2]; 72 h) was 2.10 % ID Th-227/g organ, the “Th-227 in Liver” value ([2]; 72 h) was 1.02 % ID Th-227/g organ and the “Th-227 in Spleen” value ([2]; 72 h) was 0.76 % ID Th-227/g organ. The “Th-227 in Tumor” value ([2]; 72 h) was 8.99 % ID Th-227/g organ, the “Th-227 in salivary glands” value ([2]; 72 h) was 0.77 % ID Th-227/g organ and the “Th-227 in Blood” value ([2]; 168 h) was 0.01 % ID Th-227/g organ. For the same compound, the “Th-227 in Femur bone” value ([2]; 168 h) was 1.76 % ID Th-227/g organ, the “Th-227 in Kidneys” value ([2]; 168 h) was 17.42 % ID Th-227/g organ and the “Th-227 in Liver” value ([2]; 168 h) was 1.28 % ID Th-227/g organ. For the same compound, the “Th-227 in Spleen” value ([2]; 168 h) was 1.24 % ID Th-227/g organ, the “Th-227 in Tumor” value ([2]; 168 h) was 8.68 % ID Th-227/g organ and the “Th-227 in salivary glands” value ([2]; 168 h) was 1.17 % ID Th-227/g organ. The “Th-227 in Blood” value ([2]; 336 h) was 0.00 % ID Th-227/g organ, the “Th-227 in Femur bone” value ([2]; 336 h) was 1.55 % ID Th-227/g organ and the “Th-227 in Kidneys” value ([2]; 336 h) was 5.40 % ID Th-227/g organ. For the same compound, the “Th-227 in Liver” value ([2]; 336 h) was 1.06 % ID Th-227/g organ, the “Th-227 in Spleen” value ([2]; 336 h) was 0.73 % ID Th-227/g organ and the “Th-227 in Tumor” value ([2]; 336 h) was 2.85 % ID Th-227/g organ. The “Th-227 in salivary glands” value ([2]; 336 h) was 1.20 % ID Th-227/g organ.
